Reference: patent US5674905A, “Bicyclooctane and bicycloheptane derivatives” (James Black Foundation Limited, priority 1992, dated 1997)

Columns and labels:
[1] = molecular target: T1, CCKB receptor (Mus musculus, UniProt P56481); assay: radioligand binding assay at the CCKB receptor in mouse cortical membranes ([125I]-CCK8S); settings: 150 min at 21±3°; for Ki: read-out: CCKB pKi (converted)
T1 construct: The cortex was dissected, weighed and homogenised in 40 ml ice-cold buffer; from tissue; host or cells: cerebral cortex membranes of male CD1 mice (Charles River)
T1 sequence (P56481 1-453): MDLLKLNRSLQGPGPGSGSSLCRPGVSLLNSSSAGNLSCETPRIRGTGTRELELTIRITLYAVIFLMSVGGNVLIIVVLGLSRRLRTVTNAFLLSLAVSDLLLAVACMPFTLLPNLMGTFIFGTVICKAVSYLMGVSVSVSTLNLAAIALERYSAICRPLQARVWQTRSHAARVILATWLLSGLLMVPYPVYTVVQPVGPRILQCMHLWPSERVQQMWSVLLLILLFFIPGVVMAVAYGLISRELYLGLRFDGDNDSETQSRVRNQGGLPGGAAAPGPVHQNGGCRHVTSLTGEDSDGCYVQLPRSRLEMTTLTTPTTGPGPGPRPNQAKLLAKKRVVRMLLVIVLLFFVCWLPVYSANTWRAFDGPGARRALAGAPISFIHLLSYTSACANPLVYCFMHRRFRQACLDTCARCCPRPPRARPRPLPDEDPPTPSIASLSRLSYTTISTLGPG
Method: The compounds of the examples were tested for binding at the CCKB receptor in mouse cortical membranes by means of a radioligand binding assay. The procedure was as follows:
The whole brains from male mice (CD1 22-25 g; Charles River) were removed and placed in ice-cold buffer (pH7.2 @ 21±3 °) of the following composition (mM); 10 HEPES, 130 NaCl, 4.7 KCl, 5 MgCl2, 1 EDTA and containing 0.25 g.1^-1 bacitracin. The cortex was dissected, weighed and homogenised in 40 ml ice-cold buffer using a Teflon-in-glass homogeniser. The homogenate was centrifuged at 39,800 g for 20 min at @ 4°, the supernatant discarded and the pellet resuspended by homogenisation in fresh buffer. The homogenate was recentrifuged (39,800 g; 20 min @4°) and the final pellet was resuspended in HEPES buffer to give a tissue concentration of 2 mg.ml^-1 (original wet weight).
The membranes ([…]) were incubated for 150 min at 21±3° in a final volume of 0.5 ml with HEPES buffer containing [^125 I]-CCK8S (0.05 ml; 200 pM NEN 2200 Ci.mmol^-1) and competing compound. Total and non-specific binding of [^125 I]-CCK8S were defined using 0.05 ml of buffer and 0.05 ml of […] L-365,260, respectively. The assay was terminated by rapid filtration through pre-soaked Whatman GF/B filters using a Brandell Cell harvester. The filters were washed (3×3 ml) with ice-cold 50 mM Tris-HC1 (pH7.4 @ 4° C.) and bound radioactivity determined by counting (1 min.) in a gamma-counter.

[2] = molecular target: T2, gastrin receptors (Rattus norvegicus, UniProt P30553); assay: gastrin antagonist activity in an immature rat stomach assay (pentagastrin-stimulated acid secretion); settings: isolated immature rat stomach, cumulative pentagastrin dose-response curves; for Kb: read-out: Gastrin pKB (converted)
T2 construct: from tissue; host or cells: isolated perfused whole stomach of immature rats (33-50 g, ca. 21 days old)
T2 sequence (P30553 1-452): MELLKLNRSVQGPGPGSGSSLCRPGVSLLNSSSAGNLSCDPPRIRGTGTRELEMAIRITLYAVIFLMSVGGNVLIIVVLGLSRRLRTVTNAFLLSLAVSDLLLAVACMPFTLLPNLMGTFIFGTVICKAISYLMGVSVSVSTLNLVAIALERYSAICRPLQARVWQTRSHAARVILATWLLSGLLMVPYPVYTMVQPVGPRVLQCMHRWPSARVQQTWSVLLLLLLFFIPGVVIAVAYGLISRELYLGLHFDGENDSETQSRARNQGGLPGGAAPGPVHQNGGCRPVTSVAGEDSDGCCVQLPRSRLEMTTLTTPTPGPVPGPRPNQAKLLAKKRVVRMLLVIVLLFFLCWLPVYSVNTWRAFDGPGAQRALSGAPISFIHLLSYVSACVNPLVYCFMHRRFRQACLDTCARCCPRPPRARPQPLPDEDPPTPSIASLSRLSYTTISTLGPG
Method: The compounds of the examples were also tested for gastrin antagonist activity in an immature rat stomach assay. The procedure was as follows:
The oesophagus of immature rats (33-50 g, ca. 21 days old) was ligated at the level of the cardiac sphincter and the duodenal sphincter was cannulated. The stomach was excised and flushed with ca. 1 ml of unbuffered physiological saline solution. The fundus was punctured and cannulated. A further 4-5 ml of unbuffered solution was flushed through the stomach to ensure the preparation was not leaking. The stomach was lowered into a jacketed organ bath containing 40 ml of buffered solution containing 3×10^-8 M 5-methyl-furmethide, maintained at 37° and gassed vigorously with 95% O2 /5% CO2. The stomach was continuously perfused at a rate of 1 ml min^-1 with unbuffered solution gassed with 100% O2 with the perfusate passing over an internally referenced pH-electrode fixed 12 cm above the stomach.
After 120 min of stabilisation the drugs were added directly to the serosal solution in the organ bath and after a further 60 min cumulative pentagastrin dose-response curves were started. Changes in acid secretion were monitored and the curves analysed according to Black et. al., Br. J. Pharmacol., 1985, 86, 581.

COC(=O)[C@H](C)NC(=O)C1C2C=CC(CC2)C1C(=O)NCC12CC3CC(CC(C3)C1)C2 (stereo partly drawn) [Example 24, endo-cis-2-(1-S-Methoxycarbonyl-ethylaminocarbonyl)-3-(1-adamantylmethylaminocarbonyl)-bicyclo[2.2.2]oct-5-ene]
Ki [1]: 10000 nM
Kb [2]: 1260 nM

COC(=O)[C@H](C)NC(=O)C1C2C=CC(c3ccccc32)C1C(=O)NCC12CC3CC(CC(C3)C1)C2 (stereo partly drawn) [Example 7, exo-cis-7-(1-S-methoxycarbonyl-ethylaminocarbonyl)-8-(1-adamantylmethylaminocarbonyl)-5,6-benzobicyclo[2.2.2]oct-2-ene]
Ki [1]: 251 nM
Kb [2]: 316 nM

O=C(NCC12CC3CC(CC(C3)C1)C2)C1C2C=CC(c3ccccc32)C1C(=O)N1CCC[C@@H]1C(=O)O (stereo partly drawn) [Example 10, endo-cis-7-(2-R-carboxy-pyrrolidinocarbonyl)-8-(1-adamantylmethylaminocarbonyl)-5,6-benzobicyclo[2.2.2]oct-2-ene]
Ki [1]: 2000 nM
Kb [2]: 1580 nM

O=C(NCC12CC3CC(CC(C3)C1)C2)C1C2C=CC(c3ccccc32)C1C(=O)N1CCC[C@H]1C(=O)O (stereo partly drawn) [Example 26, endo-cis-7-(2-S-carboxy-pyrrolidinocarbonyl)-8-(1-adamantylmethylaminocarbonyl)-5,6-benzo-bicyclo[2.2.2]oct-2-ene]
Ki [1]: 3160 nM
Kb [2]: 1260 nM

COC(=O)[C@@H]1CCCN1C(=O)C1C2C=CC(c3ccccc32)C1C(=O)NCC12CC3CC(CC(C3)C1)C2 (stereo partly drawn) [Example 30, endo-cis-7-(2-S-methoxycarbonyl-pyrrolidinocarbonyl)-8-(1-adamantylmethylaminocarbonyl)-5,6-benzo-bicyclo[2.2.2]oct-2-ene]
Ki [1]: 501 nM
Kb [2]: 398 nM

O=C(NCC12CC3CC(CC(C3)C1)C2)C1C2C=CC(c3ccccc32)C1C(=O)N[C@H](Cc1c[nH]c2ccccc12)C(=O)O (single isomer, unassigned) [Example 15, endo-cis-7-(2-R-(3-indolyl)-1-carboxy-ethylaminocarbonyl)-8-(1-adamantylmethylaminocarbonyl)-5,6-benzobicyclo[2.2.2]oct-2-ene]
Ki [1]: 1580 nM
Kb [2]: 3160 nM

O=C(O)c1cc(NC(=O)[C@H](Cc2ccccc2)NC(=O)C2C3CCC(c4ccccc43)C2C(=O)NCC23CC4CC(CC(C4)C2)C3)cc(C(=O)O)c1 (stereo partly drawn) [Example 61, exo-cis-7-(1S-(3,5-dicarboxyphenylaminocarbonyl)-2-phenyl-ethylaminocarbonyl)-8-(1-adamantylmethylaminocarbonyl)-2,3-benzobicyclo[2.2.2]octane]
Ki [1]: 1000 nM
Kb [2]: 251 nM

COC(=O)[C@H](C)NC(=O)C1C2CCC(c3ccccc32)C1C(=O)NCC12CC3CC(CC(C3)C1)C2 (stereo partly drawn) [Example 23, exo-cis-7-(1-S-Methoxycarbonyl-ethylaminocarbonyl)-8-(1-adamantylmethylaminocarbonyl)-2,3-benzobicyclo[2.2.2]octane]
Ki [1]: 398 nM
Kb [2]: 316 nM

COC(=O)C12CC(c3ccccc31)C(C(=O)NCC13CC4CC(CC(C4)C1)C3)C2C(=O)N1CCC[C@@H]1C(=O)O (mixture of isomers) [Example 56, (±)-1-methoxycarbonyl-endo-cis-6-(2R-carboxypyrrolidinocarbonyl)-7-(1-adamantylmethylaminocarbonyl)-2,3-benzobicyclo[2.2.1]heptane]
CCKB pKi [1]: 5.1
Gastrin pKB ([2]; 60 min): 5.6

COC(=O)[C@H](C)NC(=O)C1C2C=CC(c3ccccc32)C1C(=O)NCC12CC3CC(CC(C3)C1)C2 (stereo partly drawn) [Example 8, endo-cis-7-(1--S--methoxycarbonylethylaminocarbonyl)-8-(1-adamantylmethylaminocarbonyl)-5,6-benzobicyclo[2.2.2]oct-2-ene]
Ki [1]: 631 nM
Kb [2]: 501 nM

COC(=O)[C@@H]1CCCN1C(=O)C1C2C=CC(c3ccccc32)C1C(=O)NCC12CC3CC(CC(C3)C1)C2 (stereo partly drawn) [Example 31, exo-cis-7-(2-S-methoxycarbonyl-pyrrolidinocarbonyl)-8-(1-adamantylmethylaminocarbonyl)-5,6-benzo-bicyclo[2.2.2]oct-2-ene]
Kb [2]: 501 nM
